ChEMBL document CHEMBL6114991, “Design, synthesis, and biological evaluation of novel quinoline carboxylic acid based styryl/alkyne hybrid molecule as a potent anti-adipogenic and antidyslipidemic agent via activation of Wnt/β-catenin pathway” (Eur J Med Chem, 2025)
Activity calls are given as the source filed them. The calls are words filed in the database; no cut-off is given here.

Key:
[1] = test system: 3T3-L1; experiment: Anti-adipogenic activity in mouse 3T3-L1 cells at 20 uM relative to control; assay type: functional
[2] = test system: 3T3-L1; experiment: Cytotoxicity against mouse 3T3-L1 cells assessed as cell viability at 20 uM incubated for 48 hrs by MTT assay; assay type: toxicity, cell-based; conditions: 3t3-l1, 48 h
[3] = test system: 3T3-L1; experiment: Cytotoxicity against mouse 3T3-L1 cells assessed as cell viability at 30 uM incubated for 48 hrs by MTT assay; assay type: toxicity, cell-based; conditions: 3t3-l1, 48 h
[4] = test system: 3T3-L1; experiment: Anti-adipogenic activity in MDI-induced mouse 3T3-L1 cells assessed as suppression of adipogenesis at 0.3 uM by oil red O staining based analysis; assay type: functional, cell-based; conditions: time 72.0 hrs
[5] = test system: 3T3-L1; experiment: Anti-adipogenic activity in mouse 3T3-L1 cells assessed as suppression of adipogenesis at 20 uM measured for 72 hrs by oil red O staining based analysis; assay type: functional
[6] = test system: 3T3-L1; experiment: Anti-adipogenic activity in mouse 3T3-L1 cells assessed as reduction in lipid accumulation at 10 uM by microscopic analysis; assay type: functional, cell-based
[7] = test system: 3T3-L1; experiment: Anti-adipogenic activity in mouse 3T3-L1 cells assessed as suppression of adipogenesis at 30 uM measured for 72 hrs by oil red O staining based analysis; assay type: functional, cell-based

O=C(O)c1cc(-c2ccc(/C=C/c3ccccn3)cc2)nc2ccccc12
Activity ([1]; time 72.0 hrs): inactive

CCCCCCCCOC(=O)c1cc(-c2ccc(/C=C/c3ccc(C)cc3)cc2)nc2ccc(F)cc12
Activity ([1]; time 72.0 hrs): inactive | Activity [2]: Toxic

O=C(O)c1cc(-c2ccc(/C=C/c3ccncc3)cc2)nc2ccccc12
Activity [3]: Toxic | Activity ([1]; time 72.0 hrs): inactive | Activity [4]: Active

O=C(O)c1cc(-c2ccc(/C=C/c3ccc(Cl)cc3)cc2)nc2ccccc12
Activity ([1]; time 72.0 hrs): inactive

O=C(O)c1cc(-c2ccc(C#Cc3ccccc3)cc2)nc2ccccc12
Activity ([1]; time 72.0 hrs): inactive

COc1ccc2nc(-c3ccc(/C=C/c4ccc(C)cc4)cc3)cc(C(=O)O)c2c1
Activity [5]: 70% | Activity ([1]; time 72.0 hrs): inactive | Activity [2]: Non-toxic

CCCOC(=O)c1cc(-c2ccc(/C=C/c3ccc(C)cc3)cc2)nc2ccc(F)cc12
Activity ([1]; time 72.0 hrs): inactive | Activity [2]: Toxic

Cc1ccc(/C=C/c2ccc(-c3cc(C(=O)O)c4cc(Cl)ccc4n3)cc2)cc1
Activity ([1]; time 72 hrs): 76% | Activity [2]: Toxic

Cc1cc([N+](=O)[O-])ccc1NS(=O)(=O)c1cc(Cl)ccc1Cl
Activity [6]: Active

COc1ccc(C#Cc2ccc(-c3cc(C(=O)O)c4ccccc4n3)cc2)cc1
Activity ([1]; time 72 hrs): 69% | Activity [2]: Toxic

Cc1ccc(C#Cc2ccc(-c3cc(C(=O)O)c4ccccc4n3)cc2)cc1
Activity ([1]; time 72 hrs): 74%

Cc1ccc(/C=C/c2ccc(-c3cc(C(=O)OC(C)C)c4cc(F)ccc4n3)cc2)cc1
Activity ([1]; time 72.0 hrs): inactive | Activity [2]: Toxic

O=C(O)c1cc(-c2ccc(/C=C/c3ccc4ccccc4c3)cc2)nc2ccccc12
Activity ([1]; time 72.0 hrs): inactive

O=C(O)c1cc(-c2ccc(/C=C/c3ccccc3)cc2)nc2ccccc12
Activity ([1]; time 72.0 hrs): inactive

Cc1ccc(/C=C/c2ccc(-c3cc(C(=O)O)c4ccccc4n3)cc2)cc1
Activity [3]: Toxic | Activity [5]: 70% | Activity ([1]; time 72 hrs): 68% | Activity [4]: inactive | Activity [7]: Active | Activity [2]: Non-toxic

Cc1cccc(C#Cc2ccc(-c3cc(C(=O)O)c4ccccc4n3)cc2)c1
Activity ([1]; time 72 hrs): 68% | Activity [2]: Toxic

CC(C)(C)c1ccc(/C=C/c2ccc(-c3cc(C(=O)O)c4ccccc4n3)cc2)cc1
Activity [5]: 70% | Activity ([1]; time 72 hrs): 67% | Activity [2]: Non-toxic

O=C(O)c1ccc(/C=C/c2ccc(-c3cc(C(=O)O)c4ccccc4n3)cc2)cc1
Activity ([1]; time 72.0 hrs): inactive | Activity [2]: Toxic

CCCCCOC(=O)c1cc(-c2ccc(/C=C/c3ccc(C)cc3)cc2)nc2ccc(F)cc12
Activity ([1]; time 72.0 hrs): inactive | Activity [2]: Toxic

Cc1ccc(/C=C/c2ccc(-c3cc(C(=O)O)c4cc(C)ccc4n3)cc2)cc1
Activity ([1]; time 72.0 hrs): inactive

CCCCCCOC(=O)c1cc(-c2ccc(/C=C/c3ccc(C)cc3)cc2)nc2ccc(F)cc12
Activity ([1]; time 72.0 hrs): inactive | Activity [2]: Toxic

O=C(O)c1cc(-c2ccc(C#Cc3ccc(F)cc3)cc2)nc2ccccc12
Activity ([1]; time 72.0 hrs): inactive | Activity [2]: Toxic

Cc1ccc(/C=C/c2ccc(-c3cc(C(=O)O)c4cccc(Cl)c4n3)cc2)cc1
Activity ([1]; time 72.0 hrs): inactive

CCCCOC(=O)c1cc(-c2ccc(/C=C/c3ccc(C)cc3)cc2)nc2ccc(F)cc12
Activity ([1]; time 72.0 hrs): inactive | Activity [2]: Toxic

COC(=O)c1cc(-c2ccc(/C=C/c3ccc(C)cc3)cc2)nc2ccc(F)cc12
Activity ([1]; time 72.0 hrs): inactive | Activity [2]: Toxic

CC(C)(C)c1ccc(C#Cc2ccc(-c3cc(C(=O)O)c4ccccc4n3)cc2)cc1
Activity [3]: Toxic | Activity [5]: 70% | Activity ([1]; time 72 hrs): 69% | Activity [4]: Active | Activity [2]: Non-toxic

Cc1ccc(/C=C/c2ccc(-c3cc(C(=O)O)c4cc(C)cc(Cl)c4n3)cc2)cc1
Activity ([1]; time 72.0 hrs): inactive

CCOC(=O)c1cc(-c2ccc(/C=C/c3ccc(C)cc3)cc2)nc2ccc(F)cc12
Activity ([1]; time 72.0 hrs): inactive | Activity [2]: Toxic

Cc1ccc(/C=C/c2ccc(-c3cc(C(=O)O)c4cc(OC(F)(F)F)ccc4n3)cc2)cc1
Activity ([1]; time 72.0 hrs): inactive
